Our source for the EC50 and CC50 values is patent US8436036B2, “Diaryl ethers” (Janssen R&D Ireland, priority 2009, dated 2013).

The test system of data set [1] is HCV replicon. The experiment in a line: HCV replicon assay (Huh-Luc cells, luciferase read-out). The format is cell-based, HCV type Ib. Conditions: Hepatitis C virus, 72 h, three days incubation, luciferase activity. The source says: The compounds of formula (I) were examined for inhibitory activity in the HCV replicon. This cellular assay is based on a bicistronic expression construct, as described by Lohmann et al. (1999) Science vol. 285 pp. 110-113 with modifications described by Krieger et al. (2001) Journal of Virology 75: 4614-4624, in a multi-target screening strategy.
In essence, the method was as follows:
The assay utilized the stably transfected cell line Huh-7 luc/neo (hereafter referred to as Huh-Luc). This cell line harbors an RNA encoding a bicistronic expression construct comprising the wild type NS3-NS5B regions of HCV type Ib translated from an Internal Ribosome Entry Site (IRES) from encephalomyocarditis virus (EMCV), preceded by a reporter portion (FfL-luciferase), and a selectable marker portion (neo^R, neomycine phosphotransferase). The construct is flanked by 5′ and 3′ NTRs (non-translated regions) from HCV type Ib. Continued culture of the replicon cells in the presence of G418 (neo^R) is dependent on the replication of the HCV RNA. The stably transfected replicon cells that express HCV RNA, which replicates autonomously and to high levels, encoding inter alia luciferase, were used for screening the antiviral compounds.
The replicon cells were plated in 384 well plates in the presence of the test and control compounds which were added in various concentrations. Following an incubation of three days, HCV replication was measured by assaying luciferase activity (using standard luciferase assay substrates and reagents and a Perkin Elmer ViewLux™ ultraHTS microplate imager). Replicon cells in the control cultures have high luciferase expression in the absence of any inhibitor. The inhibitory activity of the compound on luciferase activity was monitored on the Huh-Luc cells, enabling a dose-response curve for each test compound. EC50 values were then calculated, which represent the amount of compound required to decrease the level of detected luciferase activity by 50%, or more specifically, to reduce the ability of the genetically linked HCV replicon RNA to replicate.

A short description of data set [2]: Cytotoxicity (Huh-7). The format is cell-based. Conditions: human, Huh-7 cells. From the text:
The in vitro antiviral activity against HCV of the compounds of formula I can be tested in a cellular HCV replicon system based on Lohmann et al. (1999) Science 285:110-113, with the further modifications described by Krieger et al. (2001) Journal of Virology 75: 4614-4624 (incorporated herein by reference), which is further exemplified in the examples section. This model, while not a complete infection model for HCV, is widely accepted as the most robust and efficient model of autonomous HCV RNA replication currently available. It will be appreciated that it is important to distinguish between compounds that specifically interfere with HCV functions from those that exert cytotoxic or cytostatic effects in the HCV replicon model, and as a consequence cause a decrease in HCV RNA or linked reporter enzyme concentration. Assays are known in the field for the evaluation of cellular cytotoxicity based for example on the activity of mitochondrial enzymes using fluorogenic redox dyes such as resazurin. Furthermore, cellular counter screens exist for the evaluation of non-selective inhibition of linked reporter gene activity, such as firefly luciferase. Appropriate cell types can be equipped by stable transfection with a luciferase reporter gene whose expression is dependent on a constitutively active gene promoter, and such cells can be used as a counter-screen to eliminate non-selective inhibitors.

For the molecule `O=C(C(=O)N1CCC[C@H]1c1nc(-c2cccc(Oc3ccc(-c4cnc([C@@H]5CCCN5C(=O)C(=O)c5ccccc5)[nH]4)cc3)c2)c[nH]1)c1ccccc1` [Example 20], in data set [1], the EC50 came to 58.2 nM. In data set [2], this molecule had a CC50 greater than 31.5 µM. The matching figures for `O=C(Cc1cccnc1)N1CCC[C@H]1c1nc(-c2cccc(Oc3ccc(-c4cnc([C@@H]5CCCN5C(=O)Cc5cccnc5)[nH]4)cc3)c2)c[nH]1` [Example 18]: 54.3 nM and greater than 31.5 µM. The like results for `Cc1cccc(CC(=O)N2CCC[C@H]2c2nc(-c3cccc(Oc4ccc(-c5cnc([C@@H]6CCCN6C(=O)Cc6cccc(C)c6)[nH]5)cc4)c3)c[nH]2)c1` [Example 11, 2-m-tolyl-1-((2S)-2-(5-(4-(3-(2-((S)-1-(2-m-tolylacetyl)pyrrolidin-2-yl)-1H-imidazol-4-yl)phenoxy)phenyl)-1H-imidazol-2-yl)pyrrolidin-1-yl)ethanone] were, in that order, 6180 nM and greater than 31.5 µM. The matching figures for `O=C(c1ccc(F)cc1)N1CCC[C@H]1c1nc(-c2cccc(Oc3ccc(-c4cnc([C@@H]5CCCN5C(=O)c5ccc(F)cc5)[nH]4)cc3)c2)c[nH]1` [Example 34]: 4340 nM and greater than 31.5 µM. For the molecule `O=C(c1cccnc1)N1CCC[C@H]1c1nc(-c2cccc(Oc3ccc(-c4cnc([C@@H]5CCCN5C(=O)c5cccnc5)[nH]4)cc3)c2)c[nH]1` [Example 38], in data set [1], the EC50 came to 1270 nM. In data set [2], this molecule returned a CC50 greater than 31.5 µM. The matching figures for `O=C(C(O)c1ccccc1)N1CCC[C@H]1c1nc(-c2cccc(Oc3ccc(-c4cnc([C@@H]5CCCN5C(=O)C(O)c5ccccc5)[nH]4)cc3)c2)c[nH]1` (stereo partly drawn) [Example 10, 2-hydroxy-1-((2S)-2-(5-(4-(3-(2-((2S)-1-(2-hydroxy-2-phenylacetyl)-pyrrolidin-2-yl)-1H-imidazol-4-yl)phenoxy)phenyl)-1H-imidazol-2-yl)pyrrolidin-1-yl)-2-phenylethanone]: less than 0.5 nM and 4.86 µM. Turning to `O=C(Cc1ccccc1)N1CCC[C@H]1c1ncc(-c2ccc(Oc3ccc(-c4cnc([C@@H]5CCCN5C(=O)Cc5ccccc5)[nH]4)cc3)cc2)[nH]1` [Example 49], the EC50 in data set [1] is 1120 nM. Further, the CC50 in data set [2] is greater than 31.5 µM. The like results for `O=C(CCS(=O)(=O)c1ccccc1)N1CCC[C@H]1c1nc(-c2cccc(Oc3ccc(-c4cnc([C@@H]5CCCN5C(=O)CCS(=O)(=O)c5ccccc5)[nH]4)cc3)c2)c[nH]1` [Example 21] were, in that order, 3700 nM and greater than 31.5 µM. The matching figures for `O=C(CC1CCCCC1)N1CCC[C@H]1c1nc(-c2cccc(Oc3ccc(-c4cnc([C@@H]5CCCN5C(=O)CC5CCCCC5)[nH]4)cc3)c2)c[nH]1` [Example 28]: 5470 nM and greater than 31.5 µM.

Turning to `CC(C)C[C@@H](C(=O)N1CCC[C@H]1c1nc(-c2cccc(Oc3ccc(-c4cnc([C@@H]5CCCN5C(=O)[C@H](CC(C)C)N(C)C)[nH]4)cc3)c2)c[nH]1)N(C)C` [Example 36], the concentration for a half-maximal effect (EC50) in data set [1] is 3030 nM. In data set [2], the CC50 was found to be 7.76 µM.

Turning to `COC(=O)N[C@H](C(=O)N1CCC[C@H]1c1ncc(-c2ccc(Oc3cccc(-c4cnc([C@@H]5CCCN5C(=O)[C@@H](NC(=O)OC)C(C)(C)C)[nH]4)c3)cc2)[nH]1)C(C)(C)C` [Example 40], in data set [1], the EC50 stood at 0.165 nM. This molecule also showed a CC50 in data set [2] of 12.6 µM. The matching figures for `O=C(C(c1ccccc1)n1ccnc1)N1CCC[C@H]1c1nc(-c2cccc(Oc3ccc(-c4cnc([C@@H]5CCCN5C(=O)C(c5ccccc5)n5ccnc5)[nH]4)cc3)c2)c[nH]1` (stereo partly shown) [Example 35]: 4.72 nM and greater than 31.5 µM. On to `O=C(c1ccccn1)N1CCC[C@H]1c1nc(-c2cccc(Oc3ccc(-c4cnc([C@@H]5CCCN5C(=O)c5ccccn5)[nH]4)cc3)c2)c[nH]1` [Example 37], for which, in data set [1], the EC50 is 15400 nM. In data set [2], the CC50 was greater than 31.5 µM. The like results for `Cc1nc(C(=O)N2CCC[C@H]2c2nc(-c3cccc(Oc4ccc(-c5cnc([C@@H]6CCCN6C(=O)c6nc(C)oc6C)[nH]5)cc4)c3)c[nH]2)c(C)o1` [Example 33] were, in that order, 864 nM and greater than 31.5 µM. The like results for `O=C(c1ccoc1)N1CCC[C@H]1c1nc(-c2cccc(Oc3ccc(-c4cnc([C@@H]5CCCN5C(=O)c5ccoc5)[nH]4)cc3)c2)c[nH]1` [Example 32] were, in that order, 978 nM and greater than 31.5 µM. The matching figures for `CC(C)[C@@H](C(=O)N1CCC[C@H]1c1nc(-c2cccc(Oc3ccc(-c4cnc([C@@H]5CCCN5C(=O)[C@H](C(C)C)N(C)C)[nH]4)cc3)c2)c[nH]1)N(C)C` [Example 31]: 1160 nM and 2.87 µM. Turning to `CCN(CC)[C@@H](C(=O)N1CCC[C@H]1c1nc(-c2cccc(Oc3ccc(-c4cnc([C@@H]5CCCN5C(=O)[C@@H](c5ccccc5)N(CC)CC)[nH]4)cc3)c2)c[nH]1)c1ccccc1` [Example 44], the EC50 in data set [1] worked out at 0.12 nM. In data set [2], the 50% cytotoxic concentration (CC50) was 0.78 µM. The matching figures for `CN(C)[C@@H](C(=O)N1CCC[C@H]1c1ncc(-c2ccc(Oc3cccc(-c4cnc([C@@H]5CCCN5C(=O)[C@@H](c5ccccc5)N(C)C)[nH]4)c3)cc2)[nH]1)c1ccccc1` [Example 43]: 0.114 nM and 0.7 µM.

For `COC(=O)N[C@H](C(=O)N1CCC[C@H]1c1ncc(-c2ccc(Oc3cccc(-c4cnc([C@@H]5CCCN5C(=O)[C@@H](NC(=O)OC)[C@@H](C)OC)[nH]4)c3)cc2)[nH]1)[C@@H](C)OC` [Example 39], the EC50 in data set [1] turned out to be 0.0794 nM. In data set [2], this molecule gave a 50% cytotoxic concentration (CC50) greater than 31.5 µM. With `COc1c(F)cc(CC(=O)N2CCC[C@H]2c2nc(-c3cccc(Oc4ccc(-c5cnc([C@@H]6CCCN6C(=O)Cc6cc(F)c(OC)c(F)c6)[nH]5)cc4)c3)c[nH]2)cc1F` [Example 25], in data set [1], the EC50 worked out at 3390 nM. Besides, the CC50 in data set [2] was greater than 31.5 µM. Take `CN(C)CCC(=O)N1CCC[C@H]1c1nc(-c2cccc(Oc3ccc(-c4cnc([C@@H]5CCCN5C(=O)CCN(C)C)[nH]4)cc3)c2)c[nH]1` [Example 41]: the EC50 in data set [1] is 1240 nM. The same molecule gave a CC50 in data set [2] greater than 31.5 µM. Regarding `O=C(Cc1ccc2c(c1)OCO2)N1CCC[C@H]1c1nc(-c2cccc(Oc3ccc(-c4cnc([C@@H]5CCCN5C(=O)Cc5ccc6c(c5)OCO6)[nH]4)cc3)c2)c[nH]1` [Example 19], the EC50 in data set [1] amounted to 1070 nM. Also, in data set [2], the CC50 was greater than 31.5 µM.

`O=C(Cc1ccccc1)N1CCC[C@H]1c1nc(-c2cccc(Oc3ccc(-c4cnc([C@@H]5CCCN5C(=O)Cc5ccccc5)[nH]4)cc3)c2)c[nH]1` [Example 9, 2-phenyl-1-((S)-2-(5-(4-(3-(2-((S)-1-(2-phenylacetyl)pyrrolidin-2-yl)-1H-imidazol-4-yl)phenoxy)phenyl)-1H-imidazol-2-yl)pyrrolidin-1-yl)ethanone]: in data set [1], the EC50 stood at 77 nM. Moreover, the CC50 in data set [2] was greater than 31.5 µM. Regarding `O=C([C@H]1CCCO1)N1CCC[C@H]1c1nc(-c2cccc(Oc3ccc(-c4cnc([C@@H]5CCCN5C(=O)[C@H]5CCCO5)[nH]4)cc3)c2)c[nH]1` [Example 22], in data set [1], the EC50 was 1090 nM. Further, the CC50 in data set [2] is greater than 31.5 µM. For the molecule `O=C(CCc1cccnc1)N1CCC[C@H]1c1nc(-c2cccc(Oc3ccc(-c4cnc([C@@H]5CCCN5C(=O)CCc5cccnc5)[nH]4)cc3)c2)c[nH]1` [Example 29], the EC50 in data set [1] stood at 3.98 nM. For the same molecule, the cytotoxic concentration (CC50) in data set [2] was greater than 31.5 µM. Turning to `COC(=O)N[C@H](C(=O)N1CCC[C@H]1c1nc(-c2ccc(Oc3ccc(OC)c(-c4c[nH]c([C@@H]5CCCN5C(=O)[C@@H](NC(=O)OC)C(C)C)n4)c3)cc2)c[nH]1)C(C)C` [Example 45], the EC50 in data set [1] worked out at 62.7 nM. In data set [2], this molecule showed a CC50 of 1.66 µM. The like results for `COC(=O)N[C@H](C(=O)N1CCC[C@H]1c1nc(-c2cccc(Oc3ccc(-c4cnc([C@@H]5CCCN5C(=O)[C@@H](NC(=O)OC)C(C)C)[nH]4)cc3)c2)c[nH]1)C(C)C` [Example 42] were, in that order, 0.0433 nM and 18.6 µM. Take `COc1ccc(Oc2ccc(-c3c[nH]c([C@@H]4CCCN4C(=O)[C@@H](c4ccccc4)N(C)C)n3)cc2)cc1-c1c[nH]c([C@@H]2CCCN2C(=O)[C@@H](c2ccccc2)N(C)C)n1` [Example 47]: the EC50 in data set [1] is 0.705 nM.
